Experimental data published in patent publication US20170354148A1, “SAFENED HERBICIDAL COMPOSITIONS CONTAINING HALAUXIFEN AND METHODS OF USE THEREOF IN BRASSICA SPECIES” (Dow AgroSciences LLC, priority 2016, published 2017).
Where two headings read alike, the source gives them in different places.

Key:
[1] = tested on: Roundup Ready® canola (Brassica napus, RR-BRSNN); settings: in vivo
[2] = tested on: kale/Chinese kale (Brassica alboglabra, BRSAG); settings: in vivo
[3] = tested on: rutabaga (Brassica napus var. napobrassica, BRSNA); settings: in vivo
[4] = tested on: turnip or Polish canola (Brassica rapa, BRSRR); settings: in vivo
[5] = tested on: Nexera™ canola (Brassica napus, BRSNN-NEX); settings: in vivo
[6] = tested on: winter oilseed rape (Brassica napus, BRSNW); settings: in vivo
[7] = tested on: rutabaga (Brassica napus var. napobrassica, BRSNA); assay: Example 5 greenhouse trials, postemergence visual injury; settings: BRSNA
[8] = tested on: turnip or Polish canola (Brassica rapa, BRSRR); assay: as above; settings: BRSRR
[9] = tested on: Roundup Ready® canola (Brassica napus, RR-BRSNN); assay: as above; settings: RR-BRSNN
[10] = tested on: Spring Argentine canola (Brassica napus, BRSNS); assay: Example 3 field trials (Canada), postemergence crop safety, visual phytotoxicity; settings: alone or mixed
[11] = tested on: winter oilseed rape (Brassica napus, BRSNW); assay: Example 5 greenhouse trials, postemergence visual injury; settings: BRSNW
[12] = tested on: kale/Chinese kale (Brassica alboglabra, BRSAG); assay: as above; settings: BRSAG
[13] = tested on: Nexera™ canola (Brassica napus, BRSNN-NEX); assay: as above; settings: BRSNN-NEX
[14] = tested on: Aparima Gold swede (Brassica sp., BRSSS); assay: Example 1 pot trials, postemergence crop safety, visual phytotoxicity
[15] = tested on: Aparima Gold swede (Brassica sp., BRSSS); assay: Example 2 field trials (Canterbury, New Zealand), postemergence crop safety, visual phytotoxicity

For `CCCCCC(C)OC(=O)COc1ccc(Cl)c2cccnc12` (centres unmarked) [Cloquintocet-mexyl, 1-methylhexyl (5-chloroquinolin-8-yloxy)acetate], the “Percent (%) Visual Injury RR-BRSNN Obs” value [1] was 0%, the “Percent (%) Visual Injury BRSAG Obs” value [2] was 0% and the “Percent (%) Visual Injury BRSNA Obs” value [3] was 0%. The “Percent (%) Visual Injury BRSRR Obs” value [4] was 0%, the “Percent (%) Visual Injury BRSNN-NEX Obs” value [5] was 0% and the “Percent (%) Visual Injury BRSNW Obs” value [6] was 0%.
In the case of `O=C(O)c1c(Cl)ccc2cc(Cl)cnc12` [Quinclorac, 3,7-dichloro-8-quinolinecarboxylic acid], the “% Visual Injury Obs” value ([7]; 50 g ai/ha alone, 20-22 d) is reported as 0%, the “% Visual Injury Obs” value ([7]; 100 g ai/ha alone, 20-22 d) is reported as 0% and the “% Visual Injury Obs” value ([7]; 200 g ai/ha alone, 20-22 d) is reported as 0%. For the same molecule, the “% Visual Injury Obs” value ([7]; quinclorac 50 g ai/ha) was 0%, the “Visual Injury Obs” value ([7]; quinclorac 50 g ai/ha) was 0% and the “% Visual Injury Obs” value ([7]; quinclorac 100 g ai/ha) was 0%. For the same molecule, the “Visual Injury Obs” value ([7]; quinclorac 100 g ai/ha) was 0%, the “% Visual Injury Obs” value ([7]; quinclorac 200 g ai/ha) was 0% and the “Visual Injury Obs” value ([7]; quinclorac 200 g ai/ha) was 0%. The “% Visual Injury Obs” value ([8]; 50 g ai/ha alone, 20-22 d) was 0%, the “% Visual Injury Obs” value ([8]; 100 g ai/ha alone, 20-22 d) was 0% and the “% Visual Injury Obs” value ([8]; 200 g ai/ha alone, 20-22 d) was 0%. The “% Visual Injury Obs” value ([8]; quinclorac 50 g ai/ha) was 0%, the “Visual Injury Obs” value ([8]; quinclorac 50 g ai/ha) was 0% and the “% Visual Injury Obs” value ([8]; quinclorac 100 g ai/ha) was 0%. For the same molecule, the “Visual Injury Obs” value ([8]; quinclorac 100 g ai/ha) was 0%, the “% Visual Injury Obs” value ([8]; quinclorac 200 g ai/ha) was 0% and the “Visual Injury Obs” value ([8]; quinclorac 200 g ai/ha) was 0%. For the same molecule, the “% Visual Injury Obs” value ([9]; 50 g ai/ha alone, 20-22 d) was 0%, the “% Visual Injury Obs” value ([9]; 100 g ai/ha alone, 20-22 d) was 0% and the “% Visual Injury Obs” value ([9]; 200 g ai/ha alone, 20-22 d) was 0%. The “% Visual Injury Obs” value ([9]; quinclorac 50 g ai/ha) was 0%, the “Visual Injury Obs” value ([9]; quinclorac 50 g ai/ha) was 0% and the “% Visual Injury Obs” value ([9]; quinclorac 100 g ai/ha) was 0%. For the same molecule, the “Visual Injury Obs” value ([9]; quinclorac 100 g ai/ha) was 0%, the “% Visual Injury Obs” value ([9]; quinclorac 200 g ai/ha) was 0% and the “Visual Injury Obs” value ([9]; quinclorac 200 g ai/ha) was 0%. For the same molecule, the “Mean % Visual Injury” value ([10]; Table 14, 7DAAA, halauxifen-methyl 5, quinclorac 101 g ae/ha) was 0.8%, the “Mean % Visual Injury” value ([10]; Table 14, 15DAAA, halauxifen-methyl 5, quinclorac 101 g ae/ha) was 1.0% and the “Mean % Visual Injury” value ([10]; Table 14, 27DAAA, halauxifen-methyl 5, quinclorac 101 g ae/ha) was 3.0%. For the same molecule, the “Mean % Visual Injury” value ([10]; Table 14, 57DAAA, halauxifen-methyl 5, quinclorac 101 g ae/ha) was 1.5%, the “Mean % Visual Injury” value ([10]; Table 15, 7DAAA, halauxifen-methyl 5, clopyralid-olamine 150, quinclorac 101 g ae/ha) was 0.8% and the “Mean % Visual Injury” value ([10]; Table 15, 15DAAA, halauxifen-methyl 5, clopyralid-olamine 150, quinclorac 101 g ae/ha) was 1.0%. The “Mean % Visual Injury” value ([10]; Table 15, 27DAAA, halauxifen-methyl 5, clopyralid-olamine 150, quinclorac 101 g ae/ha) was 3.0%, the “Mean % Visual Injury” value ([10]; Table 15, 57DAAA, halauxifen-methyl 5, clopyralid-olamine 150, quinclorac 101 g ae/ha) was 1.5% and the “Mean % Visual Injury” value ([10]; Table 21, 8DAAA, halauxifen-methyl 5, quinclorac 101 g ae/ha) was 3.5%. The “Mean % Visual Injury” value ([10]; Table 21, 14DAAA, halauxifen-methyl 5, quinclorac 101 g ae/ha) was 1.0%, the “Mean % Visual Injury” value ([10]; Table 21, 40DAAA, halauxifen-methyl 5, quinclorac 101 g ae/ha) was 0.5% and the “Mean % Visual Injury” value ([10]; Table 21, 81DAAA, halauxifen-methyl 5, quinclorac 101 g ae/ha) was 0.0%. The “Mean % Visual Injury” value ([10]; Table 22, 8DAAA, halauxifen-methyl 5, clopyralid-olamine 150, quinclorac 101 g ae/ha) was 3.5%, the “Mean % Visual Injury” value ([10]; Table 22, 14DAAA, halauxifen-methyl 5, clopyralid-olamine 150, quinclorac 101 g ae/ha) was 1.0% and the “Mean % Visual Injury” value ([10]; Table 22, 40DAAA, halauxifen-methyl 5, clopyralid-olamine 150, quinclorac 101 g ae/ha) was 0.5%. For the same molecule, the “Mean % Visual Injury” value ([10]; Table 22, 81DAAA, halauxifen-methyl 5, clopyralid-olamine 150, quinclorac 101 g ae/ha) was 0.0%, the “Mean % Visual Injury” value ([10]; Table 27, 7DAAA, halauxifen-methyl 5, quinclorac 101 g ae/ha) was 2.3% and the “Mean % Visual Injury” value ([10]; Table 27, 17DAAA, halauxifen-methyl 5, quinclorac 101 g ae/ha) was 1.8%. For the same molecule, the “Mean % Visual Injury” value ([10]; Table 27, 32DAAA, halauxifen-methyl 5, quinclorac 101 g ae/ha) was 5.3%, the “Mean % Visual Injury” value ([10]; Table 27, 49DAAA, halauxifen-methyl 5, quinclorac 101 g ae/ha) was 0.5% and the “Mean % Visual Injury” value ([10]; Table 28, 7DAAA, halauxifen-methyl 5, clopyralid-olamine 150, quinclorac 101 g ae/ha) was 2.3%. For the same molecule, the “Mean % Visual Injury” value ([10]; Table 28, 17DAAA, halauxifen-methyl 5, clopyralid-olamine 150, quinclorac 101 g ae/ha) was 1.8%, the “Mean % Visual Injury” value ([10]; Table 28, 32DAAA, halauxifen-methyl 5, clopyralid-olamine 150, quinclorac 101 g ae/ha) was 5.3% and the “Mean % Visual Injury” value ([10]; Table 28, 49DAAA, halauxifen-methyl 5, clopyralid-olamine 150, quinclorac 101 g ae/ha) was 0.5%. For the same molecule, the “% Visual Injury Obs” value ([11]; 50 g ai/ha alone, 20-22 d) was 0%, the “% Visual Injury Obs” value ([11]; 100 g ai/ha alone, 20-22 d) was 0% and the “% Visual Injury Obs” value ([11]; 200 g ai/ha alone, 20-22 d) was 0%. The “% Visual Injury Obs” value ([11]; quinclorac 50 g ai/ha) was 0%, the “Visual Injury Obs” value ([11]; quinclorac 50 g ai/ha) was 0% and the “% Visual Injury Obs” value ([11]; quinclorac 100 g ai/ha) was 0%. The “Visual Injury Obs” value ([11]; quinclorac 100 g ai/ha) was 0%, the “% Visual Injury Obs” value ([11]; quinclorac 200 g ai/ha) was 0% and the “Visual Injury Obs” value ([11]; quinclorac 200 g ai/ha) was 0%. For the same molecule, the “% Visual Injury Obs” value ([12]; 50 g ai/ha alone, 20-22 d) was 0%, the “% Visual Injury Obs” value ([12]; 100 g ai/ha alone, 20-22 d) was 0% and the “% Visual Injury Obs” value ([12]; 200 g ai/ha alone, 20-22 d) was 0%. For the same molecule, the “% Visual Injury Obs” value ([12]; quinclorac 50 g ai/ha) was 0%, the “Visual Injury Obs” value ([12]; quinclorac 50 g ai/ha) was 0% and the “% Visual Injury Obs” value ([12]; quinclorac 100 g ai/ha) was 0%. The “Visual Injury Obs” value ([12]; quinclorac 100 g ai/ha) was 0%, the “% Visual Injury Obs” value ([12]; quinclorac 200 g ai/ha) was 0% and the “Visual Injury Obs” value ([12]; quinclorac 200 g ai/ha) was 0%. For the same molecule, the “% Visual Injury Obs” value ([13]; 50 g ai/ha alone, 20-22 d) was 0%, the “% Visual Injury Obs” value ([13]; 100 g ai/ha alone, 20-22 d) was 0% and the “% Visual Injury Obs” value ([13]; 200 g ai/ha alone, 20-22 d) was 0%. The “% Visual Injury Obs” value ([13]; quinclorac 50 g ai/ha) was 0%, the “Visual Injury Obs” value ([13]; quinclorac 50 g ai/ha) was 0% and the “% Visual Injury Obs” value ([13]; quinclorac 100 g ai/ha) was 0%. For the same molecule, the “Visual Injury Obs” value ([13]; quinclorac 100 g ai/ha) was 0%, the “% Visual Injury Obs” value ([13]; quinclorac 200 g ai/ha) was 0% and the “Visual Injury Obs” value ([13]; quinclorac 200 g ai/ha) was 0%.
`NCCO.O=C(O)c1nc(Cl)ccc1Cl` [Clopyralidolamine] was tested, and the “% Visual Injury Obs” value [1] was 0%, the “% Visual Injury Obs” value [2] was 0% and the “% Visual Injury Obs” value [3] was 0%. For the same molecule, the “% Visual Injury Obs” value [4] was 0%, the “% Visual Injury Obs” value [5] was 0% and the “% Visual Injury Obs” value [6] was 0%.
`O=C(O)c1nc(Cl)ccc1Cl` [Clopyralid-TIPA, (2RS,2′RS,2″RS)-tris(2-hydroxypropyl)ammonium 3,6-dichloropyridine-2-carboxylate] was tested, and the “Mean % Visual Injury” value ([14]; 3DAA1, 90 g ae/ha) was 2.2%, the “Mean % Visual Injury” value ([14]; 7DAA1, 90 g ae/ha) was 0.4% and the “Mean % Visual Injury” value ([14]; 15DAA1, 90 g ae/ha) was 0.0%. The “Mean % Visual Injury” value ([14]; 28DAA1, 90 g ae/ha) was 0.0%, the “Mean % Visual Growth Inhibition” value ([15]; 22DAA1, 45 g ae/ha) was 2.0% and the “Mean % Visual Growth Inhibition” value ([15]; 22DAA1, 90 g ae/ha) was 8.0%. The “Mean % Visual Injury” value ([15]; 22DAA1, 90 g ae/ha) was 0.5%, the “Mean % Visual Growth Inhibition” value ([15]; 22DAA1, 180 g ae/ha) was 7.0% and the “Mean % Visual Injury” value ([15]; 22DAA1, 180 g ae/ha) was 0.5%. For the same molecule, the “Mean % Visual Growth Inhibition” value ([15]; 28DAA1, 45 g ae/ha) was 2.5%, the “Mean % Visual Injury” value ([15]; 28DAA1, 45 g ae/ha) was 2.8% and the “Mean % Visual Growth Inhibition” value ([15]; 28DAA1, 90 g ae/ha) was 5.0%. The “Mean % Visual Injury” value ([15]; 28DAA1, 90 g ae/ha) was 4.5%, the “Mean % Visual Injury” value ([15]; 28DAA1, 180 g ae/ha) was 3.0% and the “Mean % Visual Growth Inhibition” value ([15]; 56DAA1, 45 g ae/ha) was 6.0%. For the same molecule, the “Mean % Visual Growth Inhibition” value ([15]; 56DAA1, 90 g ae/ha) was 2.0% and the “Mean % Visual Growth Inhibition” value ([15]; 56DAA1, 180 g ae/ha) was 4.0%.
